The text below walks through data of US20020032154A1, “Interferon-suppressing placental lactogen peptides” (priority 2000, published 2002).

For assay [1] the following is noted: glucose-dependent manner; cited from earlier work.
Assay [2] has as its target insulin receptor (Homo sapiens, UniProt P06213). The conditions noted are these: isolated cells; cited from earlier work.
For assay [3] the following is noted: intravenous insulin tolerance test; cited from earlier work.
Assay [4] relates to MHC class I antigens (HLA-A, B, and C). Nature of the assay: Flow cytometry of constitutive and IFN-gamma-inducible MHC class I antigens in stably transfected HeLa cells. Format: cell-based, human. The settings on record: HeLa cells stably expressing the peptide. As for the experimental part:
(§1) For this reason the function of the cloned cDNA was tested directly using pools of stably transfected HeLa cells. Expression of three families of endogenous IFN-gamma-responsive genes in this reporter cell line was determined by flow cytometry using monoclonal antibodies that recognize MHC class II antigens (HLA-DR, DP, and DQ alpha chains), MHC class I heavy chains (HLA-A, B, and C ), and ICAM-1 antigen.
(§2) The hPL(1-28)-encoding cDNA was subcloned into the mammalian expression vector pSH4-hphm using standard methods. HeLa cells (100 mm dishes) were transfected with […] of HPL(1-28)-pSH4-hph^m DNA or empty vector (negative control) by calcium phosphate-mediated transfection. Stable transfectants were selected with hygromycin at […] for at least 16 days. Flow cytometric analysis was performed on stably transfected pools of cells that were treated in culture with IFN-gamma (0, 20, 66, 200, and 1000 U/ml) for 42 h and suspended for analysis by light trypsinization. […] Antibody binding was detected with FITC-goat anti-mouse antibody (Biomeda), and 20,000 cells were analyzed with a FACScan (Becton-Dickinson).
A general note: In flow cytometry, cells or beads pass a laser one at a time.

For assay [5], the system named is MHC class II antigens (HLA-DR, DP, and DQ). The experiment in a line: Flow cytometry of IFN-gamma-inducible MHC class II antigens in stably transfected HeLa cells. The format is cell-based, human. The conditions noted are these: HeLa cells stably expressing the peptide; any dose of IFN-gamma up to 1000 U/ml, 42 h; vs vector-transfected control cells. On the procedure: as §1, §2

Assay [6] has as its system ICAM-1 antigen. The experiment in a line: Flow cytometry of ICAM-1 antigen in stably transfected HeLa cells. The format is cell-based, human. The conditions noted are these: HeLa cells stably expressing the peptide. As for the experimental part: as §1
The hPL(1-28)-encoding cDNA was subcloned into the mammalian expression vector pSH4-hphm using standard methods. HeLa cells (100 mm dishes) were transfected with […] of HPL(1-28)-pSH4-hph^m DNA or empty vector (negative control) by calcium phosphate-mediated transfection. Stable transfectants were selected with hygromycin at […] for at least 16 days. Flow cytometric analysis was performed on stably transfected pools of cells that were treated in culture with IFN-gamma (0, 20, 66, 200, and 1000 U/ml) for 42 h and suspended for analysis by light trypsinization. Cells were stained at 4° C. with 10 µg/ml solutions of mAb CR 3/43 (Dako) specific for MHC class II antigens HLA-DP, HLA-DQ, and HLA-DR, mAb G46-2.6 (Pharmingen) specific for MHC class I antigens HLA-A, HLA-B, and HLA-C heavy chains, mAb HA58 (Pharmingen) specific for ICAM-1 antigen, and either non-immune mouse IgG1 or IgG2a as negative control. Antibody binding was detected with FITC-goat anti-mouse antibody (Biomeda), and 20,000 cells were analyzed with a FACScan (Becton-Dickinson).

In assay [7] the target is T1, hGH receptor (Homo sapiens, UniProt P10912).
T1 sequence (P10912 19-638): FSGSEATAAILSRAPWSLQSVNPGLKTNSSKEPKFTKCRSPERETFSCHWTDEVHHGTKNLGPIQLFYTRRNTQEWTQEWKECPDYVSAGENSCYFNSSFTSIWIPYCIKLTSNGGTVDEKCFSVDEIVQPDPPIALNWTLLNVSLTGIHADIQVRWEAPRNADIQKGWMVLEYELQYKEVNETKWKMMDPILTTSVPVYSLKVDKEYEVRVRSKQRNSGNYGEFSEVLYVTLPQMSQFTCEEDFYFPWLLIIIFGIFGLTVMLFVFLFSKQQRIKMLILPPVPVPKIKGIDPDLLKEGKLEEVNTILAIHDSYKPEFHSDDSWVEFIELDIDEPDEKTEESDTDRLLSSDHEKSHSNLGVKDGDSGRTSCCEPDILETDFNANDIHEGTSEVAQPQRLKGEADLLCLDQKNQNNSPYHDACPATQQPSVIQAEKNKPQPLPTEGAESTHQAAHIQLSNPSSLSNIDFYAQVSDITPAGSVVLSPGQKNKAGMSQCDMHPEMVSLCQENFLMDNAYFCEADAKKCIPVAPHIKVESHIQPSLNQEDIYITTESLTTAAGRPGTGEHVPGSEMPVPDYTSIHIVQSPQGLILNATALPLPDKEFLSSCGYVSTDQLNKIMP
The settings on record: relative to hGH; cited from earlier work.

Assay [8] relates to bovine brain capillary endothelial cell (BBCE). The conditions noted are these: cited from earlier work.
Assay [9] relates to tonsil B-lymphocyte. The conditions noted are these: in vitro; exogenous full-length hormone; cited from earlier work.
For assay [10], the system named is peripheral blood T-lymphocyte. The conditions noted are these: in vitro; exogenous full-length hormone; cited from earlier work.

On to “hGH(6-13): octapeptide representing residues 6-13 of hGH (LSRLFDNA; UniProt P01241 32-39, looked up, fragment)”, for which, in assay [1], the insulin secretion entry is given as “augmented”. The “binding of insulin to insulin receptor” value in assay [2] is “increased”. Moreover, the hypoglycemic activity result in assay [3] is “hypoglycemic activity”.
For “VQTVPLSRLFDHAMLQAHRAHQLAIDTY (VQTVPLSRLFKEAMLQAHRAHQLAIDTY; HOMO SAPIENS; hPL(1-28) peptide) [isolated peptide, N-terminal 28 residues of secreted human placental lactogen; tested as product of transfected cDNA]”, in assay [4] (IFN-gamma treatment 42 h), the “IFN-gamma-induced high level expression of class I genes” value was “did not induce high level expression”. In addition, the “constitutive expression of MHC class I genes (HLA-A, B, and C antigens)” value in assay [4] (absence of IFN-gamma) is given as “not reduced”. In addition, the “levels of HLA-DR, DP, and DQ antigens after IFN-gamma treatment” value in assay [5] is recorded as “not increased”. Also, the “fraction of ICAM-1 high-level positive cells” value in [6] (20 U/ml of IFN-gamma) is “less”; in [6] (higher doses of IFN-gamma (above 20 U/ml)) it was “still lower”. Further, the “cells expressing ICAM-1 at high level” value in assay [6] (absence of IFN-gamma treatment) is on record as “More than 50%”.

B1: hPL: full-length human placental lactogen, mature polypeptide encoded by hPL-3 and hPL-4 genes (protein, UniProt P0DML2 27-217, looked up)
Chorionic somatomammotropin …: VQTVPLSRLFDHAMLQAHRAHQLAIDTYQEFEETYIPKDQKYSFLHDSQTSFCFSDSIPTPSNMEETQQKSNLELLRISLLLIESWLEPVRFLRSMFANNLVYDTSDSDDYHLLKDLEEGIQTLMGRLEDGSRRTGQILKQTYSKFDTNSHNHDALLKNYGLLYCFRKDMDKVETFLRMVQCRSVEGSCGF
Turning to B1, the “binding to the hGH receptor, weaker than hGH” value in assay [7] was 2300 fold. Moreover, the “effect on bFGF-induced BBCE cell proliferation” value in [8] is on record as “no significant additive somatotropic effect”. In addition, the “tonsil B-lymphocyte mitogenic response to lipopolysaccharide” value in assay [9] is given as “reduced”. Also, the “peripheral blood T-lymphocyte mitogenic response to phytohemagglutinin” value in assay [10] is “reduced”.

B2: hPRL: Human prolactin (protein, UniProt P01236 29-227, looked up)
Prolactin: LPICPGGAARCQVTLRDLFDRAVVLSHYIHNLSSEMFSEFDKRYTHGRGFITKAINSCHTSSLATPEDKEQAQQMNQKDFLSLIVSILRSWNEPLYHLVTEVRGMQEAPEAILSKAVEIEEQTKRLLEGMELIVSQVHPETKENEIYPVWSGLPSLQMADEESRLSAYYNLLHCLRRDSHKIDNYLKLLKCRIIHNNNC
For B2, in assay [8], the “effect on bFGF-induced BBCE cell proliferation” value is listed as “no significant additive somatotropic effect”.
